Test results from patent US12473583B2, “Use of guar gum, fluorescence-enhanced gold nanocluster, method for detecting alpha-glucosidase, and method for screening alpha-glucosidase inhibitor” (priority 2022, dated 2025).

Molecular target: α-glucosidase (α-Glu)
Assay: Screening of α-Glu inhibitors by fluorescence detection with guar gum-gold nanocluster-Fe3+ mixed dispersion (AAG substrate)
Format: biochemical
Details: read from calibration curve of inhibitory efficiency vs concentration; third incubation 37° C. for 40 min, PBS pH=7.0, AAG substrate; fluorescence at 610 nm; read-out: IC50 (concentration of the inhibitor required to inhibit 50% α-Glu activity)
Excerpt: The present disclosure further provides a method for screening an α-Glu inhibitor, including the following steps: • providing a fluorescence-enhanced gold nanocluster-Fe^3+ mixed dispersion, where a fluorescence-enhanced gold nanocluster in the fluorescence-enhanced gold nanocluster-Fe^3+ mixed dispersion is the fluorescence-enhanced gold nanocluster in the above technical solution; • mixing an α-Glu inhibitor solution to be tested, an α-Glu solution, an AAG solution, and a PBS, and conducting third incubation to obtain a third incubation solution; • mixing the third incubation solution with the fluorescence-enhanced gold nanocluster-Fe^3+ mixed dispersion, and conducting fourth incubation to obtain a fourth incubation solution; and • subjecting the fourth incubation solution to fluorescence detection, and plotting a calibration curve of the α-Glu inhibitor to be tested according to a fluorescence emission intensity obtained by the fluorescence detection; according to the calibration curve of the α-Glu inhibitor to be tested, obtaining an IC50 of the α-Glu inhibitor to be tested to screen the α-Glu inhibitor. […]
In the present disclosure, the third incubation solution is mixed with the fluorescence-enhanced gold nanocluster-Fe^3+ mixed dispersion, and the fourth incubation is conducted to obtain the fourth incubation solution. […]

`COc1ccc([C@@H]2CC(=O)c3c(O)cc(O[C@@H]4O[C@H](CO[C@@H]5O[C@@H](C)[C@H](O)[C@@H](O)[C@H]5O)[C@@H](O)[C@H](O)[C@H]4O)cc3O2)cc1O` [hesperidin] showed an IC50 of 101 µM.
